Test results: patent US20070049593A1 (priority 2004, published 2007)
pIC50: −log10 of the molar value. Counter-ions that a name gives are not always drawn.

Target: T1, HCV polymerase (Hepatitis C virus genotype 1b, UniProt P26663)
T1 construct: a region encoding NS5B (J Virol 1991 March, 65(3), 1105-13, 544 amino acids after deletion of 47 amino acids on the C-terminal); 6xHis (C); made in house; host or cells: Escherichia coli
Test: biochemical
Parameters: species or system HCV BK strain
Procedure, shortened: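 Recombinant HCV BK-strain NS5B (C-terminal 47 aa deleted, His6-tagged, E. coli), 0.5 μg/ml, run with 5 μg/ml in vitro-transcribed RNA template (polyU/3′X), ATP/GTP/CTP 50 μM, UTP 2 μM plus [3H]UTP, pH 7.5, 25° C, 90 min. TCA-precipitated RNA counted by scintillation; IC50 from activity with vs without compound.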

T1 sequence (P26663 2420-2963): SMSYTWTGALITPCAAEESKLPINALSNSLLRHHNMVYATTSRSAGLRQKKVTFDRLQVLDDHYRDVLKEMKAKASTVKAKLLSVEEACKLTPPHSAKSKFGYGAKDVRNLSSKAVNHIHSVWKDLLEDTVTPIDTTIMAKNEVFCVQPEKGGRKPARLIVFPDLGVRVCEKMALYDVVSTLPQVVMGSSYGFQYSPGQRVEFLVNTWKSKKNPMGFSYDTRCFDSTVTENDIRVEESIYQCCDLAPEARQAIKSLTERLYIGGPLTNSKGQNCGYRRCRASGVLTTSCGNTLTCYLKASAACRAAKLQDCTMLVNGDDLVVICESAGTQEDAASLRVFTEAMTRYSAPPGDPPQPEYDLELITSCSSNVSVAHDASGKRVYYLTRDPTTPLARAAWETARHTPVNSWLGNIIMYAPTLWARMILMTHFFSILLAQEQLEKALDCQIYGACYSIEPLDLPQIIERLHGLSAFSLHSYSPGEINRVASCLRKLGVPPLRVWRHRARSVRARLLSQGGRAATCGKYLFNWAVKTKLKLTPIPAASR

Question: With `COCC1CCCN(CCN2CCn3c(c(C4CCCC4)c4ccc(C(=O)O)cc43)-c3ccc(Cl)cc32)C1` (stereo not shown) [Example 1-390, 3-chloro-13-cyclopentyl-5-[2-(3-methoxymethylpiperidin-1-yl)ethyl]-6,7-dihydro-5H-benzo[5,6][1,4]diazepino[7,1-a]indole-10-carboxylic acid] as the compound, how does the pIC50 read?
Answer: > 7.00

Question: With `CCOCC1CCCN(CCN2CCn3c(c(C4CCCCC4)c4ccc(C(=O)O)cc43)-c3ccc(Cl)cc32)C1` (stereo not shown) [Example 1-391, 3-chloro-13-cyclohexyl-5-[2-(3-ethoxymethylpiperidin-1-yl)ethyl]-6,7-dihydro-5H-benzo[5,6][1,4]diazepino[7,1-a]indole-10-carboxylic acid dihydrochloride] as the compound, how does the pIC50 read?
Answer: > 7.00

Question: `CCOCC1CCCN(CCN2CCn3c(c(C4CCCCC4)c4ccc(C(=O)O)cc43)-c3ccc(C)cc32)C1` (stereo not shown) [Example 1-392, 13-cyclohexyl-5-[2-(3-ethoxymethylpiperidin-1-yl)ethyl]-3-methyl-6,7-dihydro-5H-benzo[5,6][1,4]diazepino[7,1-a]indole-10-carboxylic acid dihydrochloride] was tested. Which pIC50 did it give?
Answer: > 7.00

Question: With `CC(C)OC1CCCN(CCN2CCn3c(c(C4CCCCC4)c4ccc(C(=O)O)cc43)-c3ccc(Cl)cc32)C1` (stereo not shown) [Example 1-393, 3-chloro-13-cyclohexyl-5-[2-(3-isopropoxypiperidin-1-yl)ethyl]-6,7-dihydro-5H-benzo[5,6][1,4]diazepino[7,1-a]indole-10-carboxylic acid monohydrochloride] as the compound, how does the pIC50 read?
Answer: > 7.00

Question: `Cc1ccc2c(c1)N(CCN1CCCC(OC(C)C)C1)CCn1c-2c(C2CCCCC2)c2ccc(C(=O)O)cc21` (stereo not shown) [Example 1-394, 13-cyclohexyl-5-[2-(3-isopropoxypiperidin-1-yl)ethyl]-3-methyl-6,7-dihydro-5H-benzo[5,6][1,4]diazepino[7,1-a]indole-10-carboxylic acid monohydrochloride] was tested. Which pIC50 did it give?
Answer: > 7.00

Question: `CC(C)OC1CCCN(CCN2CCn3c(c(C4CCCCC4)c4ccc(C(=O)O)cc43)-c3ccccc32)C1` (stereo not shown) [Example 1-395, 13-cyclohexyl-5-[2-(3-isopropoxypiperidin-1-yl)ethyl]-6,7-dihydro-5H-benzo[5,6][1,4]diazepino[7,1-a]indole-10-carboxylic acid monohydrochloride] was tested. Which pIC50 did it give?
Answer: > 7.00

Question: `CC(C)N1CCCC(CCCN2CCn3c(c(C4CCCCC4)c4ccc(C(=O)O)cc43)-c3ccc(Cl)cc32)C1` (stereo not shown) [Example 1-396, 3-chloro-13-cyclohexyl-5-[3-(1-isopropylpiperidin-3-yl)propyl]-6,7-dihydro-5H-benzo[5,6][1,4]diazepino[7,1-a]indole-10-carboxylic acid dihydrochloride] was tested. Which pIC50 did it give?
Answer: > 7.00

Question: `COCC[C@@H]1CCCN(CCN2CCn3c(c(C4CCCCC4)c4ccc(C(=O)O)cc43)-c3ccc(Cl)cc32)C1` [Example 1-397, 3-chloro-13-cyclohexyl-5-{2-[(S)-3-(2-methoxyethyl)piperidin-1-yl]ethyl}-6,7-dihydro-5H-benzo[5,6][1,4]diazepino[7,1-a]indole-10-carboxylic acid dihydrochloride] was tested. Which pIC50 did it give?
Answer: > 7.00

Question: With `COCC[C@H]1CCCN(CCN2CCn3c(c(C4CCCCC4)c4ccc(C(=O)O)cc43)-c3ccc(Cl)cc32)C1` [Example 1-398, 3-chloro-13-cyclohexyl-5-{2-[(R)-3-(2-methoxyethyl)piperidin-1-yl]ethyl}-6,7-dihydro-5H-benzo[5,6][1,4]diazepino[7,1-a]indole-10-carboxylic acid dihydrochloride] as the compound, how does the pIC50 read?
Answer: > 7.00

Question: `O=C(O)c1ccc2c(C3CCCC3)c3n(c2c1)CCN(CCN1CCCCC1)c1ccccc1-3` [Example 1-399, 13-cyclopentyl-5-[2-(piperidin-1-yl)ethyl]-6,7-dihydro-5H-benzo[5,6][1,4]diazepino[7,1-a]indole-10-carboxylic acid monohydrochloride] was tested. Which pIC50 did it give?
Answer: > 7.00

Question: `CCN1CCCC(OCCN2CCn3c(c(C4CCCCC4)c4ccc(C(=O)O)cc43)-c3ccc(Cl)cc32)C1` (stereo not shown) [Example 1-400, 3-chloro-13-cyclohexyl-5-[2-(1-ethylpiperidin-3-yloxy)ethyl]-6,7-dihydro-5H-benzo[5,6][1,4]diazepino[7,1-a]indole-10-carboxylic acid dihydrochloride] was tested. Which pIC50 did it give?
Answer: > 7.00

Question: How did the pIC50 turn out when `Cc1nc(COc2ccc3c(c2)N(CCN2CCCCC2)CCn2c-3c(C3CCCCC3)c3ccc(C(=O)O)cc32)cs1` [Example 1-401, 13-cyclohexyl-3-(2-methylthiazol-4-ylmethoxy)-5-[2-(piperidin-1-yl)ethyl]-6,7-dihydro-5H-benzo[5,6][1,4]diazepino[7,1-a]indole-10-carboxylic acid dihydrochloride] was run?
Answer: > 7.00

Question: With `Cc1nc(C)c(COc2ccc3c(c2)N(CCN2CCCCC2)CCn2c-3c(C3CCCCC3)c3ccc(C(=O)O)cc32)s1` [Example 1-402, 13-cyclohexyl-3-(2,4-dimethylthiazol-5-ylmethoxy)-5-[2-(piperidin-1-yl)ethyl]-6,7-dihydro-5H-benzo[5,6][1,4]diazepino[7,1-a]indole-10-carboxylic acid dihydrochloride] as the compound, how does the pIC50 read?
Answer: > 7.00

Question: With `CCN(CCCN1CCn2c(c(C3CCCCC3)c3ccc(C(=O)O)cc32)-c2ccc(Cl)cc21)C(C)C` [Example 1-403, 3-chloro-13-cyclohexyl-5-[3-(N-ethyl-N-isopropylamino)propyl]-6,7-dihydro-5H-benzo[5,6][1,4]diazepino[7,1-a]indole-10-carboxylic acid dihydrochloride] as the compound, how does the pIC50 read?
Answer: > 7.00

Question: `O=C(O)c1ccc2c(C3CCCCC3)c3n(c2c1)CCN(CC[C@@H]1CCCN(C2CCCC2)C1)c1cc(Cl)ccc1-3` [Example 1-404, 3-chloro-13-cyclohexyl-5-[2-((S)-1-cyclopentylpiperidin-3-yl)ethyl]-6,7-dihydro-5H-benzo[5,6][1,4]diazepino[7,1-a]indole-10-carboxylic acid dihydrochloride] was tested. Which pIC50 did it give?
Answer: > 7.00

Question: `CC(C)OCC1CCCN(CCN2CCn3c(c(C4CCCCC4)c4ccc(C(=O)O)cc43)-c3ccccc32)C1` (stereo not shown) [Example 1-405, 13-cyclohexyl-5-[2-(3-isopropoxymethylpiperidin-1-yl)ethyl]-6,7-dihydro-5H-benzo[5,6][1,4]diazepino[7,1-a]indole-10-carboxylic acid dihydrochloride] was tested. Which pIC50 did it give?
Answer: > 7.00

Question: With `CC(C)OCC1CCCN(CCN2CCn3c(c(C4CCCCC4)c4ccc(C(=O)O)cc43)-c3ccc(Cl)cc32)C1` (stereo not shown) [Example 1-406, 3-chloro-13-cyclohexyl-5-[2-(3-isopropoxymethylpiperidin-1-yl)ethyl]-6,7-dihydro-5H-benzo[5,6][1,4]diazepino[7,1-a]indole-10-carboxylic acid dihydrochloride] as the compound, how does the pIC50 read?
Answer: > 7.00

Question: With `Cc1ccc2c(c1)N(CCN1CCCC(COC(C)C)C1)CCn1c-2c(C2CCCCC2)c2ccc(C(=O)O)cc21` (stereo not shown) [Example 1-407, 13-cyclohexyl-5-[2-(3-isopropoxymethylpiperidin-1-yl)ethyl]-3-methyl-6,7-dihydro-5H-benzo[5,6][1,4]diazepino[7,1-a]indole-10-carboxylic acid dihydrochloride] as the compound, how does the pIC50 read?
Answer: > 7.00

Question: `O=C(O)c1ccc2c(C3CCCCC3)c3n(c2c1)CCN(CC[C@H]1CCCN(C2CCCC2)C1)c1cc(Cl)ccc1-3` [Example 1-408, 3-chloro-13-cyclohexyl-5-[2-((R)-1-cyclopentylpiperidin-3-yl)ethyl]-6,7-dihydro-5H-benzo[5,6][1,4]diazepino[7,1-a]indole-10-carboxylic acid dihydrochloride] was tested. Which pIC50 did it give?
Answer: > 7.00

Question: `COCC[C@H]1CCCN(CCN2CCn3c(c(C4CCCCC4)c4ccc(C(=O)O)cc43)-c3ccc(C)cc32)C1` [Example 1-409, 13-cyclohexyl-5-{2-[(R)-3-(2-methoxyethyl)piperidin-1-yl]ethyl}-3-methyl-6,7-dihydro-5H-benzo[5,6][1,4]diazepino[7,1-a]indole-10-carboxylic acid dihydrochloride] was tested. Which pIC50 did it give?
Answer: > 7.00

Question: How did the pIC50 turn out when `CCCN1CCCC(CCN2CCn3c(c(C4CCCCC4)c4ccc(C(=O)O)cc43)-c3ccc(C)cc32)C1` (stereo not shown) [Example 1-410, 13-cyclohexyl-3-methyl-5-[2-(1-propylpiperidin-3-yl)ethyl]-6,7-dihydro-5H-benzo[5,6][1,4]diazepino[7,1-a]indole-10-carboxylic acid dihydrochloride] was run?
Answer: > 7.00

Question: How did the pIC50 turn out when `CCN1CCCC(CCCN2CCn3c(c(C4CCCCC4)c4ccc(C(=O)O)cc43)-c3ccc(Cl)cc32)C1` (stereo not shown) [Example 1-411, 3-chloro-13-cyclohexyl-5-[3-(1-ethylpiperidin-3-yl)propyl]-6,7-dihydro-5H-benzo[5,6][1,4]diazepino[7,1-a]indole-10-carboxylic acid dihydrochloride] was run?
Answer: > 7.00

Question: With `O=C(O)c1ccc2c(C3CCCCC3)c3n(c2c1)CCN(CCCC1CCCN(C2CCCC2)C1)c1cc(Cl)ccc1-3` (stereo not shown) [Example 1-412, 3-chloro-13-cyclohexyl-5-[3-(1-cyclopentylpiperidin-3-yl)propyl]-6,7-dihydro-5H-benzo[5,6][1,4]diazepino[7,1-a]indole-10-carboxylic acid dihydrochloride] as the compound, how does the pIC50 read?
Answer: > 7.00

Question: How did the pIC50 turn out when `COCC[C@@H]1CCCN(CCN2CCn3c(c(C4CCCCC4)c4ccc(C(=O)O)cc43)-c3ccc(C)cc32)C1` [Example 1-413, 13-cyclohexyl-5-{2-[(S)-3-(2-methoxyethyl)piperidin-1-yl]ethyl}-3-methyl-6,7-dihydro-5H-benzo[5,6][1,4]diazepino[7,1-a]indole-10-carboxylic acid dihydrochloride] was run?
Answer: > 7.00

Question: With `CC(C)N1CCCC(CCN2CCn3c(c(C4CCCC4)c4ccc(C(=O)O)cc43)-c3ccc(Cl)cc32)C1` (stereo not shown) [Example 1-414, 3-chloro-13-cyclopentyl-5-[2-(1-isopropylpiperidin-3-yl)ethyl]-6,7-dihydro-5H-benzo[5,6][1,4]diazepino[7,1-a]indole-10-carboxylic acid monohydrochloride] as the compound, how does the pIC50 read?
Answer: > 7.00
